Assays:
[1] = target: phosphorylated EGFR (pEGFR) (Homo sapiens (Human), UniProt P00533); assay: Detection of phosphorylated EGFR (pEGFR) by AlphaLISA in A431 cells; type: cell-based; details: A431 cells (10% FBS), 4 hours incubation, EGF 30 ng/mL for 10 minutes
Protocol: […] were performed to measure phosphorylated EGFR levels using A431 cells (10% FBS). A431 (1.0*10^4cells/40 μl/well) cells were seeded in 384 well. Compounds were dissolved in DMSO, serially diluted in DMSO and then were added, mixed, and incubated for 4 hours at 37° C., […]. Following the 4-hours incubation, cells were stimulated for 10 minutes with EGF (Invitrogen, cat #PHG0311) at a final concentration of 30 ng/mL in the incubator. The media was aspirated and cells were lysed in 10 μL lysis buffer with protease and phosphatase inhibitors (PerkinElmer, cat #ALSU-PEGFR-A50K). The plates were placed on a shaker for 5 minutes and then incubated for 30 min at 4° C. for complete lysis. The lysate was transferred to an Optiplate (Perkin Elmer, cat #6007290).
Acceptor mix (PerkinElmer, cat #ALSU-PEGFR-A50K) was prepared just before use and 5 μL was dispensed to all the wells, followed by a 1.5-2 h incubation at room temperature in dark. The donor mix (PerkinElmer, cat #ALSU-PEGFR-A50K) was prepared under low light conditions prior to use and 5 μl of donor mix was added to all the wells under subdued lighting or green filters. The plates were placed on a shaker for 5 min, sealed, and incubated overnight at room temperature in dark. Plates were read on the Envision (PerkinElmer) using standard AlphaLISA settings.
The percentage of inhibition on EGFR phosphorylation was calculated following equation: % Inhibition=100×(LumHC−LumSample)/(LumHC−LumLC). The low and high controls (LC/HC) are generated from lysate from wells with cells treated with DMSO or […] Staurosporine (BioAustralis, cat #BIA-S1086), […]. IC50 values were calculated by fitting the Curve using XLfit (v5.3.1.3), equation 201: Y=Bottom+(Top−Bottom)/(1+10^((LogIC50−X)*HillSlope)).

[2] = target: phosphorylated ERBB2 (pERBB2) (Homo sapiens (Human), UniProt P04626); assay: Detection of phosphorylated ERBB2 (pERBB2) by ELISA in BT-474 cells; type: cell-based; details: four hours incubation with compound
Chain of phosphorylated ERBB2 (pERBB2) (P04626 23-1255): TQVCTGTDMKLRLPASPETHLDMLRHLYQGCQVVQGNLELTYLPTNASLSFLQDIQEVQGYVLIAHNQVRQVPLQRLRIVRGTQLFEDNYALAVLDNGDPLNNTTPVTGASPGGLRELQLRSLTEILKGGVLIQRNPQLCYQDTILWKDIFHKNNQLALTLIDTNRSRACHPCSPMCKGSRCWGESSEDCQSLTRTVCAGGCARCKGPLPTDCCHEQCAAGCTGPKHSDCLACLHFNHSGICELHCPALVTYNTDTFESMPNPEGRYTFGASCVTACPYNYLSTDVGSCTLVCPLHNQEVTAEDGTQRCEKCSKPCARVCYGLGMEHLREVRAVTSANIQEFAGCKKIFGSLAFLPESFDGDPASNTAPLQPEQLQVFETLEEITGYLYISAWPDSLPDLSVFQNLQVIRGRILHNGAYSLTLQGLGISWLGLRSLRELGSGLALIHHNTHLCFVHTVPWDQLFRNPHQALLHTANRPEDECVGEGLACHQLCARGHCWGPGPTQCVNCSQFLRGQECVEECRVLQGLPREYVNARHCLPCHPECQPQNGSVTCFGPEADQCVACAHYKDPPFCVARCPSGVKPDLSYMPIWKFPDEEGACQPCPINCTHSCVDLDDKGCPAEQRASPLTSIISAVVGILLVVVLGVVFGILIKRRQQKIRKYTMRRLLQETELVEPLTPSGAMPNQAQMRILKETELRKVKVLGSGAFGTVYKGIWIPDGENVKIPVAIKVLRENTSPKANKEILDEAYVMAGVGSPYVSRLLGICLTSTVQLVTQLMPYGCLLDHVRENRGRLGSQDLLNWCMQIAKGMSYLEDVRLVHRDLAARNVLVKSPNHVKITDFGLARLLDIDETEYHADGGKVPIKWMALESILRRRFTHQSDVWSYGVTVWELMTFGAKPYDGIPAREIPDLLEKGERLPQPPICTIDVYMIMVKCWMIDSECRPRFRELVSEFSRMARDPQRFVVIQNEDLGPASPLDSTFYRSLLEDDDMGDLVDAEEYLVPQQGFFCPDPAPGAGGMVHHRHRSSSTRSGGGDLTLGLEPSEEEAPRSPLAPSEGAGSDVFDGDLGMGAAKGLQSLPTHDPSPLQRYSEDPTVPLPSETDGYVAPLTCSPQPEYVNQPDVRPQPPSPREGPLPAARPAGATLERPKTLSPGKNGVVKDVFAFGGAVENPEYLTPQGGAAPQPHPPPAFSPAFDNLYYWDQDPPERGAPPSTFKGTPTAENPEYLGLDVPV
Protocol: BT-474 cells were seeded into a 96-well at 2.0*10^4cells/100 μl/well. Compounds were dissolved and serially diluted in DMSO. The compounds were then were added, mixed, and incubated for four hours at 37° C., 5% CO2. […] Following the four hour incubation with compounds, cell lysates were prepared. Plates were centrifuged for 5 min at 3000 RPM, and supernatant was removed from each well. Cells were washed 3 times by resuspension in 150 μl PBS, followed by centrifugation and removal of the supernatant, as above. 100 μl of cell lysis buffer (Boston BioProducts, cat #BP-115D) supplied with 1×complete ULTRA cocktail inhibitor (Thermo ScientificTM, cat #78443) was then added to the washed cells. Cells were incubated with lysis buffer for 1 hour at 4° C., and then stored at -80° C. Enzyme-linked immunosorbent assays (ELISA) were performed to measure phosphorylated ERBB2 levels. […] The next day, plates were washed with PBS+0.05% Tween20 (PBST). 150 μl of 5% BSA blocking solution was added for 1 hour at room temperature, with shaking. Plates were washed with PBST. Cell lysates were thawed and 100 μl of lysate was added to the ELISA plate. The plates were incubated for 2 hours at room temperature, with shaking. ELISA plates were then washed with PBST and 100 μl of an HRP-labeled detection antibody that binds phosphorylated tyrosine (R&D Systems, cat #841913) was added to each well. Plates were incubated for 1 hour at room temperature, with shaking. Plates were then washed with PBST, and 100 μl TMB substrate solution (R&D Systems, cat #DY999) was added. Plate were incubated in the dark for 20 minutes at room temperature. 50 μl of Stop solution (R&D Systems, cat #DY994) (50 μl) was added to each well and mixed. […] The remaining kinase activity by calculated using the following formula: % Relative activity=100×([…]). The low and high control values (“LC” and “HC”) were generated from lysate from wells without cells or with cells treated with 0.1% DMSO, respectively.

Chain of phosphorylated EGFR (pEGFR) (P00533 25-1210): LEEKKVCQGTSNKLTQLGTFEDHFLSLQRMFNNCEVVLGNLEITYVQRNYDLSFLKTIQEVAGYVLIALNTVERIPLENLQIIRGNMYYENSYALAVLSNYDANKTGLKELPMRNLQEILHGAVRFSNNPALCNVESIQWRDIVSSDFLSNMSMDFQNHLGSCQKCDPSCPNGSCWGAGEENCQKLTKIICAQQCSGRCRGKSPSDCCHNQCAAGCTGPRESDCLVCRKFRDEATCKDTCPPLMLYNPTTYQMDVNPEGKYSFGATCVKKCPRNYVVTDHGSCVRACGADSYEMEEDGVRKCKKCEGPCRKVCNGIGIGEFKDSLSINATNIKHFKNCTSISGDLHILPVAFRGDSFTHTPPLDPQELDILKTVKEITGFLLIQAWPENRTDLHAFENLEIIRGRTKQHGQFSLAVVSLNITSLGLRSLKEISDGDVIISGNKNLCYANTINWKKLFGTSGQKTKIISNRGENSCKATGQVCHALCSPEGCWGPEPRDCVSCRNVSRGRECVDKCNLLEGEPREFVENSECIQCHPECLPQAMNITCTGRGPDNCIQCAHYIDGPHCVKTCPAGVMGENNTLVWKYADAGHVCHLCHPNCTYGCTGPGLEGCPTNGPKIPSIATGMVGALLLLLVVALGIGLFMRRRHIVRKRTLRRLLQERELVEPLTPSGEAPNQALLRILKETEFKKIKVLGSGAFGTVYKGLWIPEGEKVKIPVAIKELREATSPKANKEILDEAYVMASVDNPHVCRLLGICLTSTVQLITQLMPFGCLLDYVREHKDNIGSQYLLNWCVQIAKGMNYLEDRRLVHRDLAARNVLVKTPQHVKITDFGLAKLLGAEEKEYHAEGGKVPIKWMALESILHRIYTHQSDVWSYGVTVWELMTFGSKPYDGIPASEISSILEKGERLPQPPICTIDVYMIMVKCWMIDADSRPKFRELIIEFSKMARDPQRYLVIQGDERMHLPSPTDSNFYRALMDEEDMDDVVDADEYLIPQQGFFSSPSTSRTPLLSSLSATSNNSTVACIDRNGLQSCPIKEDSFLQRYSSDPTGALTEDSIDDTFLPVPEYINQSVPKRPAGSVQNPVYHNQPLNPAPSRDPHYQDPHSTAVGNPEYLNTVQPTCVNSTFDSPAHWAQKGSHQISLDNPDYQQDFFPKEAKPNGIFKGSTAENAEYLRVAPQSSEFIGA

| Compound | IC50 [1] [nM] | IC50 [2] [nM] |
| --- | --- | --- |
| Cc1cc(Nc2ncnc3cc4c(nc23)N2CCN(C(=O)/C=C/[C@H](C)N(C)C)C(CO4)C2)c(F)cc1Oc1ccn2ncnc2c1 (stereo in doubt) [Compound 47, (4S,E)-1-((10S)-4-((4-([1,2,4]triazolo[1,5-a]pyridin-7-yloxy)-2-fluoro-5-methylphenyl)amino)-7,8,10,11-tetrahydro-9H-6,10-methanopyrimido[4′,5′:5,6]pyrido[3,2-b][1,4,7]oxadiazonin-9-yl)-4-(dimethylamino)pent-2-en-1-one] | > 10000 | 29.2 |
| CNC/C=C/C(=O)N1CCN2CC1COc1cc3ncnc(Nc4cc(C)c(Oc5ccn6ncnc6c5)cc4F)c3nc12 (stereo in doubt) [Compound 49, (E)-1-((10S)-4-((4-([1,2,4]triazolo[1,5-a]pyridin-7-yloxy)-2-fluoro-5-methylphenyl)amino)-7,8,10,11-tetrahydro-9H-6,10-methanopyrimido[4′,5′:5,6]pyrido[3,2-b][1,4,7]oxadiazonin-9-yl)-4-(methylamino)but-2-en-1-one] | 2650 | 31.5 |
| Cc1cc(Nc2ncnc3cc4c(nc23)N2CCN(C(=O)/C=C/[C@@H](C)N(C)C)C(CO4)C2)c(F)cc1Oc1ccn2ncnc2c1 (stereo in doubt) [Compound 50, (4R,E)-1-((10S)-4-((4-([1,2,4]triazolo[1,5-a]pyridin-7-yloxy)-2-fluoro-5-methylphenyl)amino)-7,8,10,11-tetrahydro-9H-6,10-methanopyrimido[4′,5′:5,6]pyrido[3,2-b][1,4,7]oxadiazonin-9-yl)-4-(dimethylamino)pent-2-en-1-one] | > 10000 | 72.4 |
| Cc1cc(Nc2ncnc3cc4c(nc23)N2CCN(C(=O)/C=C/CN(C)C)C(CO4)C2)ccc1Oc1cncc(F)c1 (stereo in doubt) [Compound 51, (E)-4-(dimethylamino)-1-((10S)-4-((4-((5-fluoropyridin-3-yl)oxy)-3-methylphenyl)amino)-7,8,10,11-tetrahydro-9H-6,10-methanopyrimido[4′,5′:5,6]pyrido[3,2-b][1,4,7]oxadiazonin-9-yl)but-2-en-1-one] | 177 | 8.84 |
| Cc1cc(Nc2ncnc3cc4c(nc23)N2CCN(C(=O)/C=C/C3(F)CN(C)C3)C(CO4)C2)ccc1Oc1ccn2ncnc2c1 (stereo in doubt) [Compound 53, (E)-1-((10S)-4-((4-([1,2,4]triazolo[1,5-a]pyridin-7-yloxy)-3-methylphenyl)amino)-7,8,10,11-tetrahydro-9H-6,10-methanopyrimido[4′,5′:5,6]pyrido[3,2-b][1,4,7]oxadiazonin-9-yl)-3-(3-fluoro-1-methylazetidin-3-yl)prop-2-en-1-one] | 3390 | 51.1 |
| [2H]C([2H])(/C=C/C(=O)N1CCN2CC1COc1cc3ncnc(Nc4cc(C)c(Oc5ccn6ncnc6c5)cc4F)c3nc12)N(C)C (stereo in doubt) [Compound 58, (E)-1-((10S)-4-((4-([1,2,4]triazolo[1,5-a]pyridin-7-yloxy)-2-fluoro-5-methylphenyl)amino)-7,8,10,11-tetrahydro-9H-6,10-methanopyrimido[4′,5′:5,6]pyrido[3,2-b][1,4,7]oxadiazonin-9-yl)-4-(dimethylamino)but-2-en-1-one-4,4-d2] | 869 | 5.5 |
| [2H]C([2H])([2H])N(C([2H])([2H])[2H])C([2H])([2H])/C=C/C(=O)N1CCN2CC1COc1cc3ncnc(Nc4cc(C)c(Oc5ccn6ncnc6c5)cc4F)c3nc12 (stereo in doubt) [Compound 59, (E)-1-((10S)-4-((4-([1,2,4]triazolo[1,5-a]pyridin-7-yloxy)-2-fluoro-5-methylphenyl)amino)-7,8,10,11-tetrahydro-9H-6,10-methanopyrimido[4′,5′:5,6]pyrido[3,2-b][1,4,7]oxadiazonin-9-yl)-4-(bis(methyl-d3)amino)but-2-en-1-one-4,4-d2] | 1380 | 9 |
| CN(C)C/C=C/C(=O)N1CCN2C[C@H]1COc1cc3ncnc(Nc4cc(F)c(Oc5ccn6ncnc6c5)cc4F)c3nc12 [Compound 48, (E)-1-((10S)-4-((4-([1,2,4]triazolo[1,5-a]pyridin-7-yloxy)-2,5-difluorophenyl)amino)-7,8,10,11-tetrahydro-9H-6,10-methanopyrimido[4′,5′:5,6]pyrido[3,2-b][1,4,7]oxadiazonin-9-yl)-4-(dimethylamino)but-2-en-1-one] | 3300 | 10.8 |
| Cc1cc(Nc2ncnc3cc4c(nc23)N2CCN(C(=O)/C=C/CN(C)C)C(CCO4)C2)ccc1Oc1ccn2ncnc2c1 (centres unmarked) [Compound 52, (E)-1-(4-((4-([1,2,4]triazolo[1,5-a]pyridin-7-yloxy)-3-methylphenyl)amino)-7,8,11,12-tetrahydro-6,10-methanopyrimido[4′,5′:5,6]pyrido[3,2-b][1,4,7]oxadiazecin-9 (10H)-yl)-4-(dimethylamino)but-2-en-1-one] | > 10000 | 635 |
| Cc1cc(Nc2ncnc3cc4c(nc23)N2CCN(C(=O)/C=C/CN(C)C)CC(CO4)C2)ccc1Oc1ccn2ncnc2c1 (centres unmarked) [Compound 57, (E)-1-(4-((4-([1,2,4]triazolo[1,5-a]pyridin-7-yloxy)-3-methylphenyl)amino)-7,8,11,12-tetrahydro-6,11-methanopyrimido[4,5′:5,6]pyrido[3,2-b][1,4,7]oxadiazecin-9 (10H)-yl)-4-(dimethylamino)but-2-en-1-one] | > 10000 | 32.8 |

— patent US20230382923A1, “FUSED TETRACYCLIC QUINAZOLINE DERIVATIVES AS INHIBITORS OF ERBB2” (EnLiven Therapeutics, Inc., priority 2021, published 2023)
